# Measured values from article doi:10.1101/2024.09.05.611349v1 (biorxiv, 2024).
# Test system: S. aureus ATCC 29213
# Experiment: microbe, parasite or virus in culture
# Conditions: Staphylococcus aureus, ATCC29213, read-out: MIC (µg/mL)
row,SMILES,MIC
1,CCCCOc1ccc(C(=O)NNC(=S)NC(C)=O)cc1 [1a],1.56 µg/mL
2,"CCCCCCOc1ccc(C(=O)NNC(=S)NC(C)=O)cc1 [1c, N-(2-(4-(n-hexoxy)benzoyl)hydrazine-1-carbonothioyl)acetamide]",1.56 µg/mL
3,CCCCCCCCCCCOc1ccc(C(=O)NNC(=S)NC(C)=O)cc1 [1d],100 µg/mL
4,CC(=O)NC(=S)NNC(=O)c1ccc(OCCCC(C)C)cc1 [1e],3.12 µg/mL
5,COCCCOc1ccc(C(=O)NNC(=S)NC(C)=O)cc1 [1f],> 100 µg/mL
6,CCCCCOc1ccc(C(=O)NNC(=S)NC(C)=O)cc1OCCCCC [1h],6.25 µg/mL
7,CCCCCOc1ccc(C(=O)NNC(=S)NC(C)=O)cc1O [1i],25 µg/mL
8,CC(=O)NC(=S)NNC(=O)c1ccc(O)c(O)c1 [1j],100 µg/mL
9,CCCCCOc1ccc(C(=O)NNC(=S)NC(C)=O)c(C)c1 [1k],3.12 µg/mL
10,CC(=O)NC(=S)NNC(=O)c1ccc(OC2CCCCC2)cc1 [1m],1.56 µg/mL
11,CC(=O)NC(=S)NNC(=O)c1ccc(Oc2ccccc2)cc1 [1n],3.12 µg/mL
12,CCCCCOc1ccc(C(=O)NNC(=S)NC(C)=O)nc1 [1o],25 µg/mL
13,CCCCCOc1ccc(CC(=O)NNC(=S)NC(C)=O)cc1 [1p],25 µg/mL
14,CCCCCOc1ccc(CCC(=O)NNC(=S)NC(C)=O)cc1 [1q],> 100 µg/mL
15,CC(=O)NC(=S)NNC(=O)c1ccc(-c2ccccc2)cc1 [1r],1.56 µg/mL
16,CC(=O)NC(=S)NNC(=O)c1cccc(-c2ccccc2)c1 [1s],3.12 µg/mL
17,CC(=O)NC(=S)NNC(=O)c1ccc2ccccc2c1 [1t],6.25 µg/mL
18,CC(=O)NC(=S)NNC(=O)c1ccc(C2CC2)cc1 [1u],3.12 µg/mL
19,"CC(=O)NC(=S)NNC(=O)c1ccc(C2CCCCC2)cc1 [1v, N-(2-(4-cyclohexylbenzoyl)hydrazine-1-carbonothioyl)acetamide]",0.39 µg/mL
20,"CCC1CCC(c2ccc(C(=O)NNC(=S)NC(C)=O)cc2)CC1 (centres unmarked) [1w, N-(2-(4-(4-ethylcyclohexyl)benzoyl)hydrazine-1-carbonothioyl)acetamide]",0.2 µg/mL
21,CC(=O)NC(=S)NNC(=O)c1ccc(N2CCOCC2)cc1 [1x],100 µg/mL
22,CCCOc1ccc(C(=O)NNC(=S)NC(C)=O)cc1 [B5],6.25 µg/mL

# Test system: not listed separately
# Experiment: in vitro
# Conditions: mouse, plasma
row,SMILES,half-life
1,CC(C)[N+](C)(CCOC(=O)C1c2ccccc2Oc2ccccc21)C(C)C [Propantheline bromide],38.3 min

# Test system: not listed separately
# Experiment: in vitro
# Conditions: mouse, liver microsomes
row,SMILES,microsomal CLint
1,COc1ccc2c(c1)[C@]13CCCC[C@@H]1[C@H](C2)N(C)CC3 [Dextromethorphan],179 µL/min/mg
2,O=C(O)Cc1ccccc1Nc1c(Cl)cccc1Cl [Diclofenac],121 µL/min/mg
3,COc1ccc2[nH]c([S+]([O-])Cc3ncc(C)c(OC)c3C)nc2c1 (centres unmarked) [Omeprazole],143 µL/min/mg

# Test system: not listed separately
# Experiment: in vitro
# Conditions: mouse, liver microsomes
# Remark: another data set of the same source
row,SMILES,half-life
1,COc1ccc2c(c1)[C@]13CCCC[C@@H]1[C@H](C2)N(C)CC3 [Dextromethorphan],7.7 min
2,O=C(O)Cc1ccccc1Nc1c(Cl)cccc1Cl [Diclofenac],11.5 min
3,COc1ccc2[nH]c([S+]([O-])Cc3ncc(C)c(OC)c3C)nc2c1 (centres unmarked) [Omeprazole],9.7 min
